Reference: patent US20170360791A1, “PHARMACEUTICAL COMPOSITIONS FOR INCREASING THE BIOAVAILABILITY OF POORLY SOLUBLE DRUGS” (ASTEX PHARMACEUTICALS, INC., priority 2014, published 2017)
Counter-ions that a name gives are not always drawn. Like-named read-outs stand apart in the source and are kept apart here.

Columns and labels:
[1] = type: physicochemical
Method: The suspensions were filtered through 0.2 or 0.45 microm filters prior to HPLC analysis. Some filtrates were diluted with MeOH prior to the HPLC analysis.

[2] = MP470.HCl in T/C with or without Soluplus in SIF; type: physicochemical; conditions: Soluplus (12.3%) added to MP470.HCl in T/C, versus control without Soluplus; SIF 37° C., 1 mg/mL MP470 (total); FIG. 4
Method: A sample of the formulation was mixed with SIF solution pre-warmed at 37° C. to make a 1 mg/mL MP470 (total) mix.

`S=C(NCc1ccc2c(c1)OCO2)N1CCN(c2ncnc3c2oc2ccccc23)CC1` [MP470.HCl, amuvatinib HCl] gave a solubility ([1]; Capryol 90, oil or lipid, thermodynamic from solid, solvent Capryol 90, room temperature, >24 hours, read-out: Solubility) of 100 µg/mL, a solubility ([1]; Cremophor EL, organic solvent or mixture, thermodynamic from solid, solvent Cremophor EL, room temperature, >24 hours, read-out: Solubility) of 7000 µg/mL and a solubility ([1]; DMF, organic solvent or mixture, thermodynamic from solid, solvent DMF, room temperature, >24 hours, read-out: Solubility) of 10000 µg/mL. The solubility ([1]; Labrafac CC, oil or lipid, thermodynamic from solid, solvent Labrafac CC, room temperature, >24 hours, read-out: Solubility) was 50 µg/mL, the solubility ([1]; Labrafil M1944CS, oil or lipid, thermodynamic from solid, solvent Labrafil M1944CS, room temperature, >24 hours, read-out: Solubility) was 300 µg/mL and the solubility ([1]; Lauroglycol 90, oil or lipid, thermodynamic from solid, solvent Lauroglycol 90, room temperature, >24 hours, read-out: Solubility) was 60 µg/mL. For the same molecule, the solubility ([1]; Maisine 35-1, oil or lipid, thermodynamic from solid, solvent Maisine 35-1, room temperature, >24 hours, read-out: Solubility) was 1400 µg/mL, the solubility ([1]; Miglyol 812N, oil or lipid, thermodynamic from solid, solvent Miglyol 812N, room temperature, >24 hours, read-out: Solubility) was 30 µg/mL and the solubility ([1]; Miglyol 829, oil or lipid, thermodynamic from solid, solvent Miglyol 829, room temperature, >24 hours, read-out: Solubility) was 100 µg/mL. The solubility ([1]; Miglyol 840, oil or lipid, thermodynamic from solid, solvent Miglyol 840, room temperature, >24 hours, read-out: Solubility) was 40 µg/mL, the solubility ([1]; Peceol, oil or lipid, thermodynamic from solid, solvent Peceol, room temperature, >24 hours, read-out: Solubility) was 200 µg/mL and the solubility ([1]; Solutol HS 15, aqueous with cosolvent or surfactant or cyclodextrin, thermodynamic from solid, solvent Solutol HS 15, estimated by diluting the mixture in water 1/100 and then assaying the dilution, read-out: Solubility) was 6000 µg/mL. It also gave a solubility ([1]; TPGS, aqueous with cosolvent or surfactant or cyclodextrin, thermodynamic from solid, solvent TPGS, estimated by diluting the mixture in water 1/100 and then assaying the dilution, read-out: Solubility) of 7000 µg/mL, a solubility ([1]; benzyl acetate, organic solvent or mixture, thermodynamic from solid, solvent Benzyl acetate, room temperature, >24 hours, read-out: Solubility) of 400 µg/mL and a solubility ([1]; benzyl alcohol, organic solvent or mixture, thermodynamic from solid, solvent Benzyl alcohol, room temperature, >24 hours, read-out: Solubility) of 48000 µg/mL. It also gave a solubility ([1]; canola oil, oil or lipid, thermodynamic from solid, solvent Canola oil, room temperature, >24 hours, read-out: Solubility) of 10 µg/mL, a solubility ([1]; castor oil, oil or lipid, thermodynamic from solid, solvent Castor oil, room temperature, >24 hours, read-out: Solubility) of 200 µg/mL and a solubility ([1]; clove oil, oil or lipid, thermodynamic from solid, solvent Clove oil, room temperature, >24 hours, read-out: Solubility) of 6700 µg/mL. For the same molecule, the solubility ([1]; corn oil, oil or lipid, thermodynamic from solid, solvent Corn oil, room temperature, >24 hours, read-out: Solubility) was 10 µg/mL, the solubility ([1]; dichloromethane, organic solvent or mixture, thermodynamic from solid, solvent Dichloromethane, room temperature, >24 hours, read-out: Solubility) was 400 µg/mL and the solubility ([1]; ethyl acetate, organic solvent or mixture, thermodynamic from solid, solvent Ethyl acetate, room temperature, >24 hours, read-out: Solubility) was 50 µg/mL. It also gave a solubility ([1]; peanut oil, oil or lipid, thermodynamic from solid, solvent Peanut oil, room temperature, >24 hours, read-out: Solubility) of 10 µg/mL, a solubility ([1]; sesame oil, oil or lipid, thermodynamic from solid, solvent Sesame oil, room temperature, >24 hours, read-out: Solubility) of 30 µg/mL and a solubility ([1]; solvent Acetic acid, room temperature, >24 hours, HCl) of 3000 µg/mL. For the same molecule, the solubility ([1]; solvent Acetone, room temperature, >24 hours, HCl) was 200 µg/mL, the solubility ([1]; solvent DMA, room temperature, >24 hours, HCl) was 13000 µg/mL and the solubility ([1]; solvent DMSO, room temperature, >24 hours, HCl) was 18000 µg/mL. For the same molecule, the solubility ([1]; solvent Glycerin, room temperature, >24 hours, HCl) was 4000 µg/mL, the solubility ([1]; solvent Labrasol, room temperature, >24 hours, HCl) was 3000 µg/mL and the solubility ([1]; solvent Methanol, room temperature, >24 hours, HCl) was 3000 µg/mL. It also gave a solubility ([1]; solvent NMP, room temperature, >24 hours, HCl) of 40000 to 80000 µg/mL, a solubility ([1]; solvent PEG400, room temperature, >24 hours, HCl) of 2000 µg/mL and a solubility ([1]; solvent Phosal 50 PG, room temperature, >24 hours, HCl) of 15000 µg/mL. It also gave a solubility ([1]; solvent Propylene glycol, room temperature, >24 hours, HCl) of 4000 µg/mL, a solubility ([1]; solvent Triacetin, room temperature, >24 hours, HCl) of 800 µg/mL and a solubility ([1]; solvent Tween 20, room temperature, >24 hours, HCl) of 17000 µg/mL. The solubility ([1]; solvent Tween 80, room temperature, >24 hours, HCl) was 4500 µg/mL, the solubility ([1]; tocopherol, oil or lipid, thermodynamic from solid, solvent Tocopherol, room temperature, >24 hours, read-out: Solubility) was 800 µg/mL and the MP470 solubility enhancement [2] was ~10 fold.
